System: 873145-292-R-J1-PDC complex spheroid viability
Assay: Anticancer human tumor 873145-292-R-J1-PDC patient-derived renal clear cell carcinoma cell line growth inhibition [POLQ]
Conditions: for IC50: curve of first compound; for viability, T/C: stronger effect = lower value
In short: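 Complex spheroid viability model combining PDC tumour cells with endothelial (HUVEC) and MSC stromal cells. Novobiocin, ART-558 or RP6685 were tested singly and in combination with standard and investigational anticancer drugs. Each was titrated in half-log steps from near clinical Cmax, or from 10 microM where Cmax was unknown.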

[1] = second compound 0.0316 µM, first compound 0.0316 µM
[2] = second compound 0.0316 µM, first compound 0.1 µM
[3] = second compound 0.0316 µM, first compound 0.316 µM
[4] = second compound 0.0316 µM, first compound 1 µM
[5] = second compound 0.0316 µM, first compound 3.16 µM
[6] = second compound 0.0316 µM, first compound 10 µM
[7] = second compound 0.1 µM, first compound 0.0316 µM
[8] = second compound 0.1 µM, first compound 0.1 µM
[9] = second compound 0.1 µM, first compound 0.316 µM
[10] = second compound 0.1 µM, first compound 1 µM
[11] = second compound 0.1 µM, first compound 3.16 µM
[12] = second compound 0.1 µM, first compound 10 µM
[13] = second compound 0.316 µM, first compound 0.0316 µM
[14] = second compound 0.316 µM, first compound 0.1 µM
[15] = second compound 0.316 µM, first compound 0.316 µM
[16] = second compound 0.316 µM, first compound 1 µM
[17] = second compound 0.316 µM, first compound 3.16 µM
[18] = second compound 0.316 µM, first compound 10 µM
[19] = second compound 1 µM, first compound 0.0316 µM
[20] = second compound 1 µM, first compound 0.1 µM
[21] = second compound 1 µM, first compound 0.316 µM
[22] = second compound 1 µM, first compound 1 µM
[23] = second compound 1 µM, first compound 3.16 µM
[24] = second compound 1 µM, first compound 10 µM
[25] = second compound 3.16 µM, first compound 0.0316 µM
[26] = second compound 3.16 µM, first compound 0.1 µM
[27] = second compound 3.16 µM, first compound 0.316 µM
[28] = second compound 3.16 µM, first compound 1 µM
[29] = second compound 3.16 µM, first compound 3.16 µM
[30] = second compound 3.16 µM, first compound 10 µM
[31] = second compound 10 µM, first compound 0.0316 µM
[32] = second compound 10 µM, first compound 0.1 µM
[33] = second compound 10 µM, first compound 0.316 µM
[34] = second compound 10 µM, first compound 1 µM
[35] = second compound 10 µM, first compound 3.16 µM
[36] = second compound 10 µM, first compound 10 µM
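Note: spheroids exposed to compounds for 7 days before viability readout.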
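Throughout, for viability, T/C: luminescence signal used as surrogate for viable cell content; 100% = DMSO vehicle control viability.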

## CCc1cc2c(N3CCc4c(cc(Cn5ccnc5)cc4-c4cn(C)nc4C(F)(F)F)C3=O)ccnc2c(OC)n1 + COC1C(OC(N)=O)C(O)C(Oc2ccc3c(O)c(NC(=O)c4ccc(O)c(CC=C(C)C)c4)c(=O)oc3c2C)OC1(C)C
Second compound 0.0316 µM
  IC50: > 10 µM
Second compound 0.1 µM
  IC50: > 10 µM
Second compound 0.316 µM
  IC50: > 10 µM
Second compound 1 µM
  IC50: > 10 µM
Second compound 3.16 µM
  IC50: > 10 µM
Second compound 10 µM
  IC50: > 10 µM
[1]
  viability, T/C: 97.1%
[2]
  viability, T/C: 96.5%
[3]
  viability, T/C: 98.2%
[4]
  viability, T/C: 97.9%
[5]
  viability, T/C: 86.8%
[6]
  viability, T/C: 79.6%
[7]
  viability, T/C: 106%
[8]
  viability, T/C: 101%
[9]
  viability, T/C: 87.7%
[10]
  viability, T/C: 81.5%
[11]
  viability, T/C: 82%
[12]
  viability, T/C: 85%
[13]
  viability, T/C: 107%
[14]
  viability, T/C: 90.1%
[15]
  viability, T/C: 86.4%
[16]
  viability, T/C: 98.7%
[17]
  viability, T/C: 96.6%
[18]
  viability, T/C: 83.2%
[19]
  viability, T/C: 94.1%
[20]
  viability, T/C: 92.4%
[21]
  viability, T/C: 86.7%
[22]
  viability, T/C: 104%
[23]
  viability, T/C: 84.3%
[24]
  viability, T/C: 74.4%
[25]
  viability, T/C: 103%
[26]
  viability, T/C: 98.7%
[27]
  viability, T/C: 96.5%
[28]
  viability, T/C: 91.8%
[29]
  viability, T/C: 82.4%
[30]
  viability, T/C: 91.4%
[31]
  viability, T/C: 88.4%
[32]
  viability, T/C: 97.5%
[33]
  viability, T/C: 87%
[34]
  viability, T/C: 86.2%
[35]
  viability, T/C: 85.1%
[36]
  viability, T/C: 78.2%

## CNCc1ccc(-c2[nH]c3cc(F)cc4c3c2CCNC4=O)cc1 + COC1C(OC(N)=O)C(O)C(Oc2ccc3c(O)c(NC(=O)c4ccc(O)c(CC=C(C)C)c4)c(=O)oc3c2C)OC1(C)C
Second compound 0.0316 µM
  IC50: > 10 µM
Second compound 0.1 µM
  IC50: > 10 µM
Second compound 0.316 µM
  IC50: > 10 µM
Second compound 1 µM
  IC50: > 10 µM
Second compound 3.16 µM
  IC50: > 10 µM
Second compound 10 µM
  IC50: > 10 µM
[1]
  viability, T/C: 106%
[2]
  viability, T/C: 96.8%
[3]
  viability, T/C: 102%
[4]
  viability, T/C: 96.7%
[5]
  viability, T/C: 90.7%
[6]
  viability, T/C: 91.6%
[7]
  viability, T/C: 97%
[8]
  viability, T/C: 97.8%
[9]
  viability, T/C: 88%
[10]
  viability, T/C: 95.6%
[11]
  viability, T/C: 88%
[12]
  viability, T/C: 98.3%
[13]
  viability, T/C: 94.9%
[14]
  viability, T/C: 89.4%
[15]
  viability, T/C: 95.8%
[16]
  viability, T/C: 89.2%
[17]
  viability, T/C: 96.1%
[18]
  viability, T/C: 104%
[19]
  viability, T/C: 90.4%
[20]
  viability, T/C: 98.5%
[21]
  viability, T/C: 118%
[22]
  viability, T/C: 86.7%
[23]
  viability, T/C: 95.7%
[24]
  viability, T/C: 102%
[25]
  viability, T/C: 99.5%
[26]
  viability, T/C: 95.8%
[27]
  viability, T/C: 98.4%
[28]
  viability, T/C: 92.2%
[29]
  viability, T/C: 98.1%
[30]
  viability, T/C: 96.1%
[31]
  viability, T/C: 98.5%
[32]
  viability, T/C: 101%
[33]
  viability, T/C: 92.4%
[34]
  viability, T/C: 94.7%
[35]
  viability, T/C: 98.5%
[36]
  viability, T/C: 102%

## COc1cc2cc(C(=O)CCC(=O)O)sc2cc1OC + COC1C(OC(N)=O)C(O)C(Oc2ccc3c(O)c(NC(=O)c4ccc(O)c(CC=C(C)C)c4)c(=O)oc3c2C)OC1(C)C
Second compound 0.0316 µM
  IC50: > 10 µM
Second compound 0.1 µM
  IC50: > 10 µM
Second compound 0.316 µM
  IC50: > 10 µM
Second compound 1 µM
  IC50: > 10 µM
Second compound 3.16 µM
  IC50: > 10 µM
Second compound 10 µM
  IC50: > 10 µM
[1]
  viability, T/C: 106%
[2]
  viability, T/C: 93.8%
[3]
  viability, T/C: 106%
[4]
  viability, T/C: 101%
[5]
  viability, T/C: 91.8%
[6]
  viability, T/C: 94.3%
[7]
  viability, T/C: 105%
[8]
  viability, T/C: 97.7%
[9]
  viability, T/C: 94.7%
[10]
  viability, T/C: 91.7%
[11]
  viability, T/C: 108%
[12]
  viability, T/C: 102%
[13]
  viability, T/C: 107%
[14]
  viability, T/C: 93.8%
[15]
  viability, T/C: 94.7%
[16]
  viability, T/C: 89.8%
[17]
  viability, T/C: 97.6%
[18]
  viability, T/C: 94.2%
[19]
  viability, T/C: 108%
[20]
  viability, T/C: 87.4%
[21]
  viability, T/C: 109%
[22]
  viability, T/C: 100%
[23]
  viability, T/C: 102%
[24]
  viability, T/C: 92.1%
[25]
  viability, T/C: 103%
[26]
  viability, T/C: 104%
[27]
  viability, T/C: 89%
[28]
  viability, T/C: 95.1%
[29]
  viability, T/C: 100%
[30]
  viability, T/C: 98.1%
[31]
  viability, T/C: 93.4%
[32]
  viability, T/C: 88.2%
[33]
  viability, T/C: 94.5%
[34]
  viability, T/C: 97.6%
[35]
  viability, T/C: 99.2%
[36]
  viability, T/C: 96.7%

## COc1ccc([C@@H](O)c2cc(-c3ncnc4cc(N5CCOCC5)ccc34)c(F)cc2Cl)nn1 + COC1C(OC(N)=O)C(O)C(Oc2ccc3c(O)c(NC(=O)c4ccc(O)c(CC=C(C)C)c4)c(=O)oc3c2C)OC1(C)C
Second compound 0.0316 µM
  IC50: 4.41 µM
Second compound 0.1 µM
  IC50: 4.1 µM
Second compound 0.316 µM
  IC50: 3.22 µM
Second compound 1 µM
  IC50: 3.96 µM
Second compound 3.16 µM
  IC50: 6.14 µM
Second compound 10 µM
  IC50: 5.25 µM
[1]
  viability, T/C: 92%
[2]
  viability, T/C: 97.4%
[3]
  viability, T/C: 81.2%
[4]
  viability, T/C: 69.8%
[5]
  viability, T/C: 50.3%
[6]
  viability, T/C: 46.1%
[7]
  viability, T/C: 94.3%
[8]
  viability, T/C: 87.9%
[9]
  viability, T/C: 83.1%
[10]
  viability, T/C: 71.3%
[11]
  viability, T/C: 51.7%
[12]
  viability, T/C: 40.3%
[13]
  viability, T/C: 108%
[14]
  viability, T/C: 93%
[15]
  viability, T/C: 76.1%
[16]
  viability, T/C: 64.9%
[17]
  viability, T/C: 51.3%
[18]
  viability, T/C: 36.6%
[19]
  viability, T/C: 92.4%
[20]
  viability, T/C: 85.5%
[21]
  viability, T/C: 83.5%
[22]
  viability, T/C: 68.1%
[23]
  viability, T/C: 52.5%
[24]
  viability, T/C: 40.1%
[25]
  viability, T/C: 89.1%
[26]
  viability, T/C: 92.4%
[27]
  viability, T/C: 85.7%
[28]
  viability, T/C: 65.1%
[29]
  viability, T/C: 62.9%
[30]
  viability, T/C: 42.7%
[31]
  viability, T/C: 99.1%
[32]
  viability, T/C: 90%
[33]
  viability, T/C: 88.7%
[34]
  viability, T/C: 70.4%
[35]
  viability, T/C: 58.9%
[36]
  viability, T/C: 39.9%
